According to PubChem BioAssay (NCI):
Several values for one entry are separate records, joined by “and”; a condition that tells them apart may be missing. Equal values may be shown once.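 Dose response: 5 concentrations. Exposure: 48 h. Format: 96-well plates. Endpoint: linear interpolation; highest concentration if not reached. Here, GI50 denotes the concentration required for 50% inhibition of growth. The concentration for full growth arrest is given as TGI.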

Experiments:
Assay in all cases: NCI tumour cell line growth inhibition, 48 h
SNB-75 CNS = system: SNB-75 CNS
SW-620 colon = system: SW-620 colon
HT29 colon = system: HT29 colon
LOX IMVI melanoma = system: LOX IMVI melanoma
CCRF-CEM leukemia = system: CCRF-CEM leukemia
IGROV1 ovarian = system: IGROV1 ovarian
EKVX NSCLC = system: EKVX NSCLC
NCI-H460 lung = system: NCI-H460 lung
UACC-62 melanoma = system: UACC-62 melanoma
NCI-H226 lung = system: NCI-H226 lung

Compound | GI50 (SNB-75 CNS) | TGI (SNB-75 CNS) | GI50 (SW-620 colon) | TGI (SW-620 colon) | GI50 (HT29 colon) | TGI (HT29 colon) | GI50 (LOX IMVI melanoma) | TGI (LOX IMVI melanoma) | GI50 (CCRF-CEM leukemia) | TGI (CCRF-CEM leukemia) | GI50 (IGROV1 ovarian) | TGI (IGROV1 ovarian) | GI50 (EKVX NSCLC) | TGI (EKVX NSCLC) | GI50 (NCI-H460 lung) | TGI (NCI-H460 lung) | GI50 (UACC-62 melanoma) | TGI (UACC-62 melanoma) | GI50 (NCI-H226 lung) | TGI (NCI-H226 lung)
NCCCC[C@@H]1NC(=O)[C@H]2CCCN2C(=O)[C@H](Cc2ccccc2)NC(=O)[C@H](Cc2ccccc2)CNC1=O | > 100 µM | > 100 µM | > 100 µM | > 100 µM | > 100 µM | > 100 µM | > 100 µM | > 100 µM | > 100 µM | > 100 µM | > 100 µM | > 100 µM | > 100 µM | > 100 µM | > 100 µM | > 100 µM | > 100 µM | > 100 µM | > 100 µM | > 100 µM
Cn1cc(C(=O)c2ccccc2)ccc1=O |  | > 100 µM |  | > 100 µM |  | > 100 µM |  | > 100 µM |  | > 100 µM |  | > 100 µM |  | > 100 µM |  | > 100 µM |  | > 100 µM |  | > 100 µM
COc1cc(OC(=O)c2c(O)cc(O)c(O)c2C)cc(C)c1C(=O)Oc1cc(C)c(C(=O)O)c(O)c1 |  | > 100 µM |  | > 100 µM |  | > 100 µM |  | > 100 µM |  | > 100 µM |  | > 100 µM |  | > 100 µM |  | > 100 µM |  | > 100 µM |  | > 100 µM
CC1=C2C(=O)O[C@@H](c3ccoc3)[C@]2(C)CCC1 |  | > 100 µM |  | > 100 µM |  | > 100 µM |  | > 100 µM |  | > 100 µM |  | > 100 µM |  | > 100 µM |  | > 100 µM |  | > 100 µM |  | > 100 µM
CC(=O)OC[C@]12CC[C@H]3[C@@H](C[C@H]4O[C@]45[C@@H](O)C=CC(=O)[C@]35C)[C@@H]1CC[C@@H]2[C@H](C)[C@H]1CC(C)=C(C)C(=O)O1 | 0.261 µM and 0.264 µM | 0.953 µM and 1.25 µM | 0.274 µM and 0.141 µM | 0.744 µM and 0.463 µM | 0.302 µM and 0.305 µM | 0.716 µM and 0.961 µM | 0.303 µM and 0.374 µM | 0.692 µM and 1.19 µM | 0.229 µM and 0.112 µM | 0.745 µM and 1.82 µM | 0.706 µM and 0.924 µM | 2.7 µM | 0.601 µM and 0.753 µM | 1.94 µM | 0.588 µM and 1.07 µM | 3.53 µM | 0.481 µM and 0.479 µM | 1.58 µM | 0.983 µM and 0.583 µM | 1.9 µM
CCN1C(=O)CNc2ncc(-c3ccc(-c4ncn[nH]4)nc3C)nc21 | 0.0369 µM | 0.321 µM | 0.439 µM | 12.1 µM | 0.317 µM | 11.6 µM | 0.205 µM | 2.47 µM | 0.215 µM | > 34.8 µM | 0.045 µM | 0.606 µM | 0.188 µM | 5.77 µM | 0.118 µM | 11.3 µM | 0.0777 µM | 0.587 µM | 0.128 µM | 6.44 µM
CCN(CC)c1sc(N(CC)CC)c2c1SSSSS2 | 2.71 µM | 4.52 µM | 0.132 µM | 1.14 µM | 2.06 µM | 5.2 µM | 1.01 µM | 3.31 µM | 0.359 µM | 1.24 µM | 0.715 µM | 2.77 µM | 1.84 µM | 5.54 µM | 2.48 µM | 6.02 µM | 0.721 µM | 1.87 µM | 1.75 µM | 3.46 µM
Fc1cc(F)c(COc2cc(Cn3cnc4c(Cl)nc(Cl)nc43)ccc2C23CC4CC(CC(C4)C2)C3)cc1F | 21.7 µM | 52.1 µM | 12.3 µM | 29.3 µM | 23.6 µM | 62.5 µM | 1.76 µM | 3.91 µM | 1.91 µM | 4.52 µM | 13.2 µM | 27.5 µM | 23.3 µM | 50.8 µM | 19.4 µM | 37.5 µM | 12.5 µM | 25.2 µM | 2.15 µM | 4.51 µM
NC(=S)N/N=C/c1ccc(OC(=O)COc2ccc(Cl)cc2)cn1 |  | > 100 µM | 3.29 µM | > 100 µM | 7.19 µM | > 100 µM | 3.18 µM | > 100 µM | 2.73 µM | > 100 µM | 16.4 µM | > 100 µM | 30.9 µM | > 100 µM | 3.91 µM | 18.9 µM | 4.17 µM | 60 µM | 13.4 µM | 48.9 µM
CCS(=O)(=O)c1ccc(OC)c(Nc2ncc(-c3cccc(C(C)=O)c3)o2)c1 | 2.73 µM | 23 µM | > 25 µM | > 25 µM | > 25 µM | > 25 µM | 10.4 µM | > 25 µM | > 25 µM | > 25 µM | 5.47 µM | 16.1 µM | > 25 µM | > 25 µM | > 25 µM | > 25 µM | > 25 µM | > 25 µM | 2.69 µM | > 25 µM
COc1ccc(C(=O)COc2cccc(/C=C3\COc4ccc5ccccc5c4C3=O)c2)cc1 | 2.39 µM | 11.6 µM | 3.33 µM | 13.7 µM | 6.08 µM | > 100 µM | 5.41 µM | > 100 µM | 1.92 µM | 6.26 µM | 17.4 µM | > 100 µM | 4.26 µM | > 100 µM | 6.44 µM | > 100 µM | 16.3 µM | > 100 µM | 15.4 µM | > 100 µM
CCCCCCCCCCCCCC1CCC(CC)N1 (stereo unspecified) |  | 17.7 µM |  | 29.6 µM |  | 15.1 µM |  | 32 µM |  | 18.2 µM |  | 36.1 µM |  | 31.4 µM |  | 18.5 µM |  | 17.1 µM |  | 30.2 µM
CCC1(O)C(=O)OCc2c1cc1n(c2=O)Cc2cc3ccc(C=O)cc3nc2-1 (stereo unspecified) |  | 30.8 µM and 14.5 µM |  | 50 µM and > 100 µM |  | 16.5 µM and > 89 µM | 0.403 µM | 7.8 µM and 5.58 µM | 0.052 µM | 0.37 µM and 1.14 µM | 5.11 µM | 20 µM and 50.7 µM | 15.1 µM | 50 µM and > 100 µM | 0.301 µM | 6.59 µM and 26.4 µM | 0.77 µM | 3.44 µM and 3.71 µM | 1.76 µM | 13.9 µM and 7.4 µM
O=C(Nc1ccc(Cl)cc1)c1cc(-c2ccc(F)cc2)c2sc(=O)[nH]c2n1 | 2.02 µM | 5.33 µM | 3.01 µM | 16.2 µM | 3.02 µM | 11.4 µM | 1.68 µM | 4.43 µM | 0.657 µM | 9.9 µM | 1.78 µM | 7.06 µM | 1.64 µM | 6.11 µM | 1.73 µM | 4.29 µM | 0.366 µM | 2.32 µM | 1.11 µM | 3.93 µM
